Among the test systems are 786-0 renal; A549 NSCLC; HOP-62 NSCLC; HT29 colon; IGROV1 ovarian; MALME-3M melanoma; OVCAR-5 ovarian; SK-MEL-5 melanoma; SN12C renal; SNB-75 CNS.
Common to all, as to assay: inhibition of tumour cell growth, NCI panel, 48 h

Where “and” joins values, the source holds several entries; their conditions need not be identical. Equal entries are not always repeated.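 Test compounds were applied to cells in 96-well plates for 48 hours at 5 doses. GI50 is the concentration that inhibits growth by half. TGI is the concentration that stops growth completely.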

Consider 11 compounds from PubChem BioAssay (NCI).

In the case of `COc1ccc2nc3cc([N+](=O)[O-])ccc3c(NCCCN(C)C)c2c1`, the GI50 is 0.174 µM in the experiment on 786-0 renal; 0.278 µM with A549 NSCLC; 0.0315 µM in the experiment with HOP-62 NSCLC; 0.0397 µM with HT29 colon; 0.363 µM in the experiment on IGROV1 ovarian; 0.287 µM in the experiment on MALME-3M melanoma. Moreover, the GI50 in the experiment with OVCAR-5 ovarian was 0.768 µM; in the experiment on SK-MEL-5 melanoma it was 0.187 µM; with SN12C renal, 0.111 µM; in the experiment on SNB-75 CNS, 0.31 µM. Moreover, the TGI is 1.28 µM in the experiment on 786-0 renal; 10.1 µM with A549 NSCLC; 0.202 µM in the experiment with HOP-62 NSCLC; 1.12 µM in the experiment on HT29 colon; 3.59 µM in the experiment with IGROV1 ovarian; 0.878 µM with MALME-3M melanoma. Further, the TGI in the experiment with OVCAR-5 ovarian turned out to be 4.51 µM; with SK-MEL-5 melanoma, 0.832 µM; with SN12C renal, 0.768 µM; in the experiment with SNB-75 CNS, 1.53 µM.

With `N#C/C(=C1\SC(N=Nc2ccccc2)C(=O)N1c1ccccc1)c1nc2ccccc2[nH]1` (stereo not drawn), the TGI was greater than 100 µM with 786-0 renal; greater than 100 µM in the experiment on A549 NSCLC; 73.6 µM in the experiment with HOP-62 NSCLC; greater than 100 µM with HT29 colon; greater than 100 µM in the experiment on IGROV1 ovarian; greater than 100 µM with MALME-3M melanoma. Besides, the TGI in the experiment on OVCAR-5 ovarian, in the experiment with SK-MEL-5 melanoma, with SN12C renal and with SNB-75 CNS was greater than 100 µM in each case.

Consider `CC(C)(C)C(=O)OCC1CCC(n2cnc3c(=O)[nH]c(N)nc32)O1` (stereo not drawn), for which the TGI with 786-0 renal, in the experiment on A549 NSCLC, in the experiment with HOP-62 NSCLC, in the experiment with HT29 colon, in the experiment with IGROV1 ovarian and in the experiment on MALME-3M melanoma was greater than 100 µM each time. In addition, the TGI with OVCAR-5 ovarian, in the experiment on SK-MEL-5 melanoma, in the experiment with SN12C renal and in the experiment on SNB-75 CNS was greater than 100 µM each time.

Turning to `CCc1cccc(CC)c1NC(=O)C1=C(C)NC(C)=C(C(=O)Nc2c(CC)cccc2CC)C1c1ccc([N+](=O)[O-])cc1`, the TGI in the experiment on 786-0 renal was 29.2 µM; in the experiment on A549 NSCLC it was greater than 100 µM; in the experiment on HOP-62 NSCLC, greater than 100 µM; in the experiment with HT29 colon, 40 µM; with IGROV1 ovarian, 52.4 µM; in the experiment on MALME-3M melanoma, 46.8 µM. For the same compound, the TGI was greater than 100 µM with OVCAR-5 ovarian, 33 µM in the experiment with SK-MEL-5 melanoma, greater than 100 µM in the experiment with SN12C renal and greater than 100 µM with SNB-75 CNS.

Turning to `O=C1/C(=C\c2ccccn2)c2ccccc2N1c1c(Cl)cccc1Cl`, the GI50 in the experiment on 786-0 renal is 1.84 µM; with A549 NSCLC, 2.29 µM; with HOP-62 NSCLC, 2.07 µM; with HT29 colon, 2.53 µM; in the experiment on IGROV1 ovarian it was 2.26 µM; with MALME-3M melanoma it was 1.74 µM. For the same compound, the GI50 with OVCAR-5 ovarian was 2.05 µM; in the experiment with SK-MEL-5 melanoma, 1.61 µM; in the experiment with SN12C renal, 2.65 µM; in the experiment on SNB-75 CNS, 2.01 µM. Moreover, the TGI in the experiment with 786-0 renal is 3.49 µM; in the experiment on A549 NSCLC it was 14.6 µM; in the experiment with HOP-62 NSCLC, 5.04 µM; in the experiment on HT29 colon, 5.75 µM; in the experiment on IGROV1 ovarian, 6.92 µM; in the experiment on MALME-3M melanoma it was 4.89 µM. The TGI in the experiment with OVCAR-5 ovarian amounted to 4.81 µM; with SK-MEL-5 melanoma, 3.03 µM; with SN12C renal it was 12.5 µM; with SNB-75 CNS it was 15.4 µM.

`COc1ccc(-c2c3c(n(C4OC(COC(C)=O)C(OC(C)=O)C(OC(C)=O)C4OC(C)=O)c(=S)c2C#N)CC(C)(C)CC3=O)cc1` (stereo not drawn): the GI50 in the experiment with 786-0 renal is 36.3 µM and > 100 µM; with SK-MEL-5 melanoma it was 23.1 µM and 61.1 µM; with SNB-75 CNS, 25 µM and 67.8 µM. The TGI in the experiment with 786-0 renal, in the experiment on A549 NSCLC, in the experiment with HOP-62 NSCLC, in the experiment on HT29 colon, in the experiment on IGROV1 ovarian and with MALME-3M melanoma was greater than 100 µM in each case. In addition, the TGI was greater than 100 µM in the experiment with OVCAR-5 ovarian; 75.7 µM and > 100 µM in the experiment with SK-MEL-5 melanoma; greater than 100 µM with SN12C renal; 97.9 µM and > 100 µM with SNB-75 CNS.

Consider `CCc1cc(CCC(=O)Nc2c(C)cccc2C)[nH]n1`, for which the TGI in the experiment on 786-0 renal, in the experiment on A549 NSCLC, in the experiment on HOP-62 NSCLC, in the experiment on HT29 colon, in the experiment with IGROV1 ovarian and in the experiment on MALME-3M melanoma was greater than 100 µM throughout. Moreover, the TGI in the experiment with OVCAR-5 ovarian, with SK-MEL-5 melanoma, in the experiment on SN12C renal and in the experiment with SNB-75 CNS was greater than 100 µM throughout.

Regarding `CN(C)c1nc(=Nc2cccc(Cl)c2)ss1`, the TGI in the experiment with 786-0 renal was 25.6 µM; in the experiment on A549 NSCLC, 76.4 µM; in the experiment with HOP-62 NSCLC, greater than 100 µM; with HT29 colon it was 36.3 µM; in the experiment on IGROV1 ovarian it was 51 µM; in the experiment with MALME-3M melanoma, 27.1 µM. The TGI with OVCAR-5 ovarian was 74.6 µM; in the experiment with SK-MEL-5 melanoma it was greater than 100 µM; in the experiment on SN12C renal, 25.4 µM; with SNB-75 CNS, 66.3 µM.

Consider `CN(Cc1cc(Cl)cc(Cl)c1)CC(C(=O)c1ccccc1)c1ccccc1` (stereo not drawn), for which the TGI with 786-0 renal was 10.4 µM; in the experiment with A549 NSCLC, greater than 100 µM; in the experiment on HOP-62 NSCLC, 71.3 µM; with HT29 colon, 7.91 µM; with IGROV1 ovarian, greater than 58.3 µM; in the experiment with MALME-3M melanoma, 24 µM. Moreover, the TGI in the experiment on OVCAR-5 ovarian is 19.1 µM; in the experiment with SK-MEL-5 melanoma, 29.9 µM; with SN12C renal, 16.3 µM; with SNB-75 CNS, 31.3 µM.

As to `COc1cccc(C2c3cc4c(cc3OC(N3CCCC3)C2C)OCO4)c1O` (stereo not drawn), the TGI in the experiment on 786-0 renal was greater than 100 µM; with A549 NSCLC, greater than 67.1 µM; in the experiment on HOP-62 NSCLC it was 45.7 µM; in the experiment with HT29 colon, 14.7 µM; in the experiment with IGROV1 ovarian it was 99.1 µM; in the experiment on MALME-3M melanoma, 58.2 µM. Further, the TGI is greater than 100 µM in the experiment on OVCAR-5 ovarian, 16.3 µM with SK-MEL-5 melanoma, 40.7 µM in the experiment with SN12C renal and 8.29 µM in the experiment on SNB-75 CNS.

As to `Cn1c2ccc(Br)cc2c2c3c(c4c5ccccc5[nH]c4c21)C(=O)N(O)C3=O`, the GI50 with 786-0 renal was 0.174 µM; with A549 NSCLC, 0.63 µM; with HOP-62 NSCLC it was 0.131 µM; with HT29 colon it was 0.23 µM; in the experiment with IGROV1 ovarian it was 0.262 µM; in the experiment on MALME-3M melanoma, 0.186 µM. In addition, the GI50 in the experiment with OVCAR-5 ovarian is 1.33 µM; in the experiment with SK-MEL-5 melanoma it was 0.128 µM; with SN12C renal, 0.0814 µM; with SNB-75 CNS, 0.164 µM. In addition, the TGI with 786-0 renal was determined as 0.421 µM; with A549 NSCLC, 2.49 µM; in the experiment with HOP-62 NSCLC it was 0.653 µM; with HT29 colon it was 0.658 µM; in the experiment on IGROV1 ovarian, 1.07 µM; in the experiment with MALME-3M melanoma, 0.386 µM. Moreover, the TGI with OVCAR-5 ovarian was found to be 3.73 µM; in the experiment with SK-MEL-5 melanoma, 0.266 µM; in the experiment with SN12C renal it was 0.445 µM; with SNB-75 CNS it was 0.425 µM.
